Measured values published in the supplement of paper PMC11424490.

Assays:
NCI-H2122 [1] = assay: combination cScore with adagrasib (Bliss gap around IC50) (%PoC); higher = stronger additive effect
Protocol: (§1)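 Combination screen of 179 inhibitors with the KRAS G12C inhibitor adagrasib (MRTX849) in dose matrices, CellTiter-Glo readout in NCI-H2122 (72 h), SW837 (144 h) and NCI-H358 cells. The cScore is the mean Bliss-independence gap (expected minus observed viability, in %PoC) over a 3x3 field around the IC50s of both drugs. Positive means additive, and >~10 is stated as clear additive.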

SW837 [2] = assay: as above
Protocol: as §1

NCI-H2122 [3] = assay: combination cScore with sotorasib (Bliss gap around IC50) (%PoC); higher = stronger additive effect
Protocol: as §1, with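 “sotorasib (AMG510)” for “adagrasib (MRTX849)”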

NCI-H2122 [4] = assay: fitted bottom plateau of viability curve, % of DMSO control; higher = less maximal inhibition; extreme values may be limits of the assay
Protocol: (§2)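 CellTiter-Glo proliferation assay in KRAS G12C mutant NCI-H2122 (72 h), SW837 (144 h) and NCI-H358 cells in 384-well plates. Monotherapy dose response was fitted with a four-parameter curve after normalisation to DMSO controls (% of control, PoC). IC50 is the relative IC50, averaged over replicates. Bottom is the fitted lower plateau in %PoC; Max.Conc. is the top dose tested.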

SW837 [5] = assay: as above
Protocol: as §2

## CN(C)C(=N)NC(=N)N [Metformin] + C=C(F)C(=O)N1CCN(c2nc(OC[C@@H]3CCCN3C)nc3c2CCN(c2cccc4cccc(Cl)c24)C3)C[C@@H]1CC#N [adagrasib]
NCI-H2122 [1]
  combination cScore with adagrasib: -8.41
SW837 [2]
  combination cScore with adagrasib: 1.92

## C=C(c1ccc(C(=O)O)cc1)c1cc2c(cc1C)C(C)(C)CCC2(C)C [Bexarotene] + C=C(F)C(=O)N1CCN(c2nc(OC[C@@H]3CCCN3C)nc3c2CCN(c2cccc4cccc(Cl)c24)C3)C[C@@H]1CC#N [adagrasib]
NCI-H2122 [1]
  combination cScore with adagrasib: -4.01
SW837 [2]
  combination cScore with adagrasib: 0.535

## CC(=O)O[C@@]12CO[C@@H]1C[C@H](O)[C@@]1(C)C(=O)[C@H](O)C3=C(C)[C@@H](OC(=O)[C@H](O)[C@@H](NC(=O)OC(C)(C)C)c4ccccc4)C[C@@](O)([C@@H](OC(=O)c4ccccc4)[C@H]21)C3(C)C [Docetaxel] + C=C(F)C(=O)N1CCN(c2nc(OC[C@@H]3CCCN3C)nc3c2CCN(c2cccc4cccc(Cl)c24)C3)C[C@@H]1CC#N [adagrasib]
NCI-H2122 [1]
  combination cScore with adagrasib: 3.05
SW837 [2]
  combination cScore with adagrasib: 0.74

## O=C(c1ccc(F)c(F)c1Nc1ccc(I)cc1F)N1CC(O)([C@@H]2CCCCN2)C1 [Cobimetinib] + C=C(F)C(=O)N1CCN(c2nc(OC[C@@H]3CCCN3C)nc3c2CCN(c2cccc4cccc(Cl)c24)C3)C[C@@H]1CC#N [adagrasib]
NCI-H2122 [1]
  combination cScore with adagrasib: 2.78
SW837 [2]
  combination cScore with adagrasib: 13.2

## O=C(O)c1nn(Cc2ccc(Cl)cc2Cl)c2ccccc12 [Lonidamine] + C=C(F)C(=O)N1CCN(c2nc(OC[C@@H]3CCCN3C)nc3c2CCN(c2cccc4cccc(Cl)c24)C3)C[C@@H]1CC#N [adagrasib]
NCI-H2122 [1]
  combination cScore with adagrasib: -1.92
SW837 [2]
  combination cScore with adagrasib: -1.95

## N[C@H]1CC[C@H](N[C@@H]2C[C@H]2c2ccccc2)CC1 [ORY-1001] + C=C(F)C(=O)N1CCN(c2nc(OC[C@@H]3CCCN3C)nc3c2CCN(c2cccc4cccc(Cl)c24)C3)C[C@@H]1CC#N [adagrasib]
NCI-H2122 [1]
  combination cScore with adagrasib: -4.53
SW837 [2]
  combination cScore with adagrasib: 2.12

## CC(C)(C)c1cc(NC(=O)Nc2ccc(-c3cn4c(n3)sc3cc(OCCN5CCOCC5)ccc34)cc2)no1 [Quizartinib] + C=C(F)C(=O)N1CCN(c2nc(OC[C@@H]3CCCN3C)nc3c2CCN(c2cccc4cccc(Cl)c24)C3)C[C@@H]1CC#N [adagrasib]
NCI-H2122 [1]
  combination cScore with adagrasib: -3.38
SW837 [2]
  combination cScore with adagrasib: 0.28

## CC(=O)[C@]1(O)Cc2c(O)c3c(c(O)c2[C@@H](O[C@H]2C[C@H](N)[C@H](O)[C@H](C)O2)C1)C(=O)c1ccccc1C3=O [Idarubicin] + C=C(F)C(=O)N1CCN(c2nc(OC[C@@H]3CCCN3C)nc3c2CCN(c2cccc4cccc(Cl)c24)C3)C[C@@H]1CC#N [adagrasib]
NCI-H2122 [1]
  combination cScore with adagrasib: 4.03
SW837 [2]
  combination cScore with adagrasib: 2.73

## CS(=O)(=O)c1ccc(C(=O)Nc2ccc(Cl)c(-c3ccccn3)c2)c(Cl)c1 [Vismodegib] + C=C(F)C(=O)N1CCN(c2nc(OC[C@@H]3CCCN3C)nc3c2CCN(c2cccc4cccc(Cl)c24)C3)C[C@@H]1CC#N [adagrasib]
NCI-H2122 [1]
  combination cScore with adagrasib: 3.61
SW837 [2]
  combination cScore with adagrasib: 15.7

## CO[C@@]12[C@H](COC(N)=O)C3=C(C(=O)C(C)=C(N)C3=O)N1C[C@@H]1N[C@@H]12 [Mitomycin C] + C=C(F)C(=O)N1CCN(c2nc(OC[C@@H]3CCCN3C)nc3c2CCN(c2cccc4cccc(Cl)c24)C3)C[C@@H]1CC#N [adagrasib]
NCI-H2122 [1]
  combination cScore with adagrasib: 0.77
SW837 [2]
  combination cScore with adagrasib: -3.24

## O=[N+]([O-])c1ccc(NCCNc2ncc(-c3ncc[nH]3)c(-c3ccc(Cl)cc3Cl)n2)nc1 + C=C(F)C(=O)N1CCN(c2nc(OC[C@@H]3CCCN3C)nc3c2CCN(c2cccc4cccc(Cl)c24)C3)C[C@@H]1CC#N [adagrasib]
NCI-H2122 [1]
  combination cScore with adagrasib: -12.7
SW837 [2]
  combination cScore with adagrasib: 5.65

## Nc1ncn([C@H]2C[C@H](O)[C@@H](CO)O2)c(=O)n1 [Decitabine] + C=C(F)C(=O)N1CCN(c2nc(OC[C@@H]3CCCN3C)nc3c2CCN(c2cccc4cccc(Cl)c24)C3)C[C@@H]1CC#N [adagrasib]
NCI-H2122 [1]
  combination cScore with adagrasib: 3.82
SW837 [2]
  combination cScore with adagrasib: -0.47

## C[C@H](CS)C(=O)N1CCC[C@H]1C(=O)O [Captopril] + C=C(F)C(=O)N1CCN(c2nc(OC[C@@H]3CCCN3C)nc3c2CCN(c2cccc4cccc(Cl)c24)C3)C[C@@H]1CC#N [adagrasib]
NCI-H2122 [1]
  combination cScore with adagrasib: -0.24
SW837 [2]
  combination cScore with adagrasib: -3.8

## N#CN=C(NCCCCCCOc1ccc(Cl)cc1)Nc1ccncc1 [GMX1778] + C=C(F)C(=O)N1CCN(c2nc(OC[C@@H]3CCCN3C)nc3c2CCN(c2cccc4cccc(Cl)c24)C3)C[C@@H]1CC#N [adagrasib]
NCI-H2122 [1]
  combination cScore with adagrasib: -7.75
SW837 [2]
  combination cScore with adagrasib: 2.82

## C[C@@H](Oc1cc(-c2cnn(C3CCNCC3)c2)cnc1N)c1c(Cl)ccc(F)c1Cl + C=C(F)C(=O)N1CCN(c2nc(OC[C@@H]3CCCN3C)nc3c2CCN(c2cccc4cccc(Cl)c24)C3)C[C@@H]1CC#N [adagrasib]
NCI-H2122 [1]
  combination cScore with adagrasib: 6.58
SW837 [2]
  combination cScore with adagrasib: 12.7

## Cc1[nH]c2ccccc2c1CCNCc1ccc(/C=C/C(=O)NO)cc1 [Panobinostat] + C=CC(=O)N1CCN(c2nc(=O)n(-c3c(C)ccnc3C(C)C)c3nc(-c4c(O)cccc4F)c(F)cc23)[C@@H](C)C1 [sotorasib]
NCI-H2122 [3]
  combination cScore with sotorasib: 0.52

## N[C@H]1CC[C@H](N[C@@H]2C[C@H]2c2ccccc2)CC1 [ORY-1001] + C=CC(=O)N1CCN(c2nc(=O)n(-c3c(C)ccnc3C(C)C)c3nc(-c4c(O)cccc4F)c(F)cc23)[C@@H](C)C1 [sotorasib]
NCI-H2122 [3]
  combination cScore with sotorasib: 8.65

## CCCS(=O)(=O)Nc1ccc(F)c(C(=O)c2c[nH]c3ncc(Cl)cc23)c1F [PLX4720] + C=C(F)C(=O)N1CCN(c2nc(OC[C@@H]3CCCN3C)nc3c2CCN(c2cccc4cccc(Cl)c24)C3)C[C@@H]1CC#N [adagrasib]
SW837 [2]
  combination cScore with adagrasib: -5.68

## O=C(O)c1nn(Cc2ccc(Cl)cc2Cl)c2ccccc12 [Lonidamine] (top concentration tested 10000 nM)
NCI-H2122 [4]
  fitted bottom plateau of viability curve: 77.4%
SW837 [5]
  fitted bottom plateau of viability curve: 86.4%

## CC1=C(/C=C/C(C)=C/C=C/C(C)=C/C(=O)O)C(C)(C)CCC1 [Tretinoin] (top concentration tested 10000 nM)
NCI-H2122 [4]
  fitted bottom plateau of viability curve: 78.8%
SW837 [5]
  fitted bottom plateau of viability curve: 105%

## CN(C)CCCC(=O)Nc1n[nH]c2nnc(-c3ccccc3)cc12 (top concentration tested 10000 nM)
NCI-H2122 [4]
  fitted bottom plateau of viability curve: 76.1%
SW837 [5]
  fitted bottom plateau of viability curve: 85.9%

## COc1ccc(Cn2ccc3ccc(C(=O)NO)cc32)cc1 (top concentration tested 10000 nM)
NCI-H2122 [4]
  fitted bottom plateau of viability curve: 67.3%
SW837 [5]
  fitted bottom plateau of viability curve: 99.9%

## CCCS(=O)(=O)Nc1ccc(F)c(C(=O)c2c[nH]c3ncc(Cl)cc23)c1F [PLX4720] (top concentration tested 10000 nM)
NCI-H2122 [4]
  fitted bottom plateau of viability curve: 73.6%
SW837 [5]
  fitted bottom plateau of viability curve: 101%

## CNC(=O)c1cc(Oc2ccc(NC(=O)Nc3ccc(Cl)c(C(F)(F)F)c3)cc2)ccn1 [Sorafenib] (top concentration tested 999.95 nM)
NCI-H2122 [4]
  fitted bottom plateau of viability curve: 84.3%
SW837 [5]
  fitted bottom plateau of viability curve: 92.6%

## c1ccc(-c2nn3c(c2-c2ccnc4cc(OCCN5CCOCC5)ccc24)CCC3)nc1 (top concentration tested 9999.9 nM)
NCI-H2122 [4]
  fitted bottom plateau of viability curve: 78.1%
SW837 [5]
  fitted bottom plateau of viability curve: 90.3%

## CO[C@H]1C[C@@H]2CC[C@@H](C)[C@@](O)(O2)C(=O)C(=O)N2CCCC[C@H]2C(=O)O[C@H]([C@H](C)C[C@@H]2CC[C@@H](O)[C@H](OC)C2)CC(=O)[C@H](C)/C=C(\C)[C@@H](O)[C@@H](OC)C(=O)[C@H](C)C[C@H](C)/C=C/C=C/C=C/1C [Rapamycin] (top concentration tested 1000 nM)
NCI-H2122 [4]
  fitted bottom plateau of viability curve: 64.1%
SW837 [5]
  fitted bottom plateau of viability curve: 88.4%

## C[C@]1(c2nc3c(C(N)=O)cccc3[nH]2)CCCN1 [Veliparib] (top concentration tested 10000 nM)
NCI-H2122 [4]
  fitted bottom plateau of viability curve: 93.6%
SW837 [5]
  fitted bottom plateau of viability curve: 102%

## O=C(Cc1ccccc1)Nc1nnc(CCSCCc2nnc(NC(=O)Cc3ccccc3)s2)s1 [BPTES] (top concentration tested 10000 nM)
NCI-H2122 [4]
  fitted bottom plateau of viability curve: 56.3%
SW837 [5]
  fitted bottom plateau of viability curve: 90.2%

## CCN1CCN(c2ccc(Nc3cc(N(C)C(=O)Nc4c(Cl)c(OC)cc(OC)c4Cl)ncn3)cc2)CC1 [BGJ398] (top concentration tested 1000 nM)
NCI-H2122 [4]
  fitted bottom plateau of viability curve: 78.2%
SW837 [5]
  fitted bottom plateau of viability curve: 90.4%
